Test results: patent publication US20090176817A1, “Method of Treatment of Diarrhea-Predominant Irritable Bowel Syndrome in a Subject” (priority 2005, published 2009)

Tested on: diarrhea-predominant IBS subjects
Assay: Study S241.3.011: weekly diary questions on adequate relief
Format: in vivo, human
Settings: 2 mg TID, ITT; for Number of subjects who were responders during the three-month treatment period: Adequate relief of IBS symptoms / Number of subjects who were responders during the three-month treatment period: Adequate relief of abdominal pain/discomfort / Number of subjects who were responders during the three-month treatment period: Adequate relief of abnormal bowel habits: observed case
Method: Study S241.3.011 was a Phase III, double-blind, placebo-controlled, randomized, multinational study to investigate the safety and efficacy of 2 mg TID of cilansetron for a period of 12 weeks followed by a rerandomized, placebo-controlled four-week treatment period, in diarrhea-predominant IBS subjects. The study was conducted in six countries including the US. A total of 2115 subjects consented to participate, and 770 subjects were randomized. A total of 746 subjects were analyzed for efficacy and 755 subjects were analyzed for safety. Diagnosis and main criteria for inclusion were IBS subjects satisfying the Rome I criteria (1992); the diarrhea predominant sub-population of the Rome II criteria; and a minimum abdominal pain/discomfort, stool frequency and consistency determined during the run-in period. Subjects were treated with cilansetron 2 mg tablets given orally TID or matching placebo tablets given orally TID for 12 weeks followed by a rerandomized, placebo-controlled four-week treatment period.
The primary efficacy parameter was the number of months that a subject was a responder for IBS symptoms (abdominal pain, abdominal discomfort, abnormal bowel habits) over the 12-week treatment period. A responder for a month (monthly responder) was defined as a subject who answered the weekly question with “yes” at least twice for that month. The two main secondary efficacy parameters were the monthly responder rates based on the “adequate relief” questions regarding abdominal pain/discomfort and abnormal bowel habits during the 12-week treatment period. The overall response rate and responder rate for the weekly diary questions on adequate relief at each month and all months, the adequate relief rate, the number of subjects with adequate relief by week, daily diary questions, IBS-QOL scores, and the interruption of activities were also assessed. Safety was evaluated by physical examination, ECG, vital signs, laboratory evaluations, concomitant medications, and AEs.
Subjects who were initially randomized to the cilansetron 2 mg TID group and rerandomized to placebo, will be referred to as the C/P treatment group; subjects initially randomized to the placebo group and rerandomized to placebo will be referred to as the P/P treatment group; the P/C and C/C treatment group nomenclature follow the same principle. Of the 591 subjects who completed the three-month treatment period, 576 subjects were rerandomized and thus divided into the following treatment groups: 150 subjects in the C/C treatment group, 140 subjects in the C/P treatment group, 136 subjects in the P/C treatment group, and 150 subjects in the P/P treatment group. Of the 576 subjects rerandomized, a higher percentage of subjects in the C/C treatment group (99%) completed the study compared with the C/P (95%), P/C (93%), and the P/P (95%) treatment groups.
Studies S24 1.3.OO6, S24 1.3.0 1 1, and S24 1.3.009 used the following efficacy measurements: • The subjects answered the following three questions with “yes” or “no” using a phone diary at the end of each week: • a) During the last week, did you experience adequate relief of your IBS symptoms, such as abdominal pain, abdominal discomfort, abnormal bowel habits? • b) During the last week, did you experience adequate relief of your abdominal pain and/or discomfort? • c) During the last week, did you experience adequate relief of your abnormal bowel habits? • The subjects rated the following symptoms using the phone diary at the end of each day: • abdominal pain/discomfort (five-point scale); • stool consistency (seven-point Bristol Stool Scale); • stool frequency (number of bowel movements each day); • urgency (five-point scale); • straining (yes or no); • feeling of incomplete defecation (yes or no); • bloating or feeling of abdominal distension (five-point scale). • In Studies S241 A006 and S241.3.009, subjects completed the IBS-QOL Survey at Baseline (Day 1) and at the end of treatment. […]

[1] = Duration of IBS: >24 months to ≦48 months, monthly LOCF imputation
[2] = Duration of IBS: >24 months to ≦48 months
[3] = Duration of IBS: >48 months to ≦120 months, monthly LOCF imputation
[4] = Duration of IBS: >48 months to ≦120 months
[5] = Duration of IBS: >120 months, monthly LOCF imputation
[6] = Duration of IBS: ≦24 months, monthly LOCF imputation
[7] = Female subjects, three-month treatment period, monthly LOCF

Cc1nccn1C[C@H]1CCc2c(c3cccc4c3n2CCC4)C1=O [Cilansetron, (R)-(−)-4,5,6,8,9,10-hexahydro-10-[(2-methyl-1H-imidazol-1-yl)methyl]-11H-pyrido-[3,2,1-jk]-carbazol-11-one]
Number of months a subject was a responder during the three-month treatment period: Abnormal bowel habits, Two months [1]: 10 (14) n (%) | Number of months a subject was a responder during the three-month treatment period: Abnormal bowel habits, Zero months [1]: 20 (28) n (%) | Number of months a subject was a responder during the three-month treatment period: IBS symptoms, One month [1]: 7 (10) n (%) | Number of months a subject was a responder during the three-month treatment period: IBS symptoms, Three months [1]: 32 (44) n (%) | Number of months a subject was a responder during the three-month treatment period: IBS symptoms, Two months [1]: 16 (22) n (%) | Number of months a subject was a responder during the three-month treatment period: IBS symptoms, Zero months [1]: 17 (24) n (%) | Number of subjects who were responders during the three-month treatment period: Adequate relief of IBS symptoms [2]: 44 (61) n (%) | Number of subjects who were responders during the three-month treatment period: Adequate relief of abdominal pain/discomfort [2]: 44 (61) n (%) | Number of subjects who were responders during the three-month treatment period: Adequate relief of abnormal bowel habits [2]: 43 (60) n (%) | Number of months a subject was a responder during the three-month treatment period: Abdominal pain/discomfort, One month [3]: 15 (11) n (%) | Number of months a subject was a responder during the three-month treatment period: Abdominal pain/discomfort, Three months [3]: 61 (46) n (%) | Number of months a subject was a responder during the three-month treatment period: Abdominal pain/discomfort, Two months [3]: 23 (17) n (%) | Number of months a subject was a responder during the three-month treatment period: Abdominal pain/discomfort, Zero months [3]: 34 (26) n (%) | Number of months a subject was a responder during the three-month treatment period: Abnormal bowel habits, One month [3]: 15 (11) n (%) | Number of months a subject was a responder during the three-month treatment period: Abnormal bowel habits, Three months [3]: 50 (38) n (%) | Number of months a subject was a responder during the three-month treatment period: Abnormal bowel habits, Two months [3]: 29 (22) n (%) | Number of months a subject was a responder during the three-month treatment period: Abnormal bowel habits, Zero months [3]: 39 (29) n (%) | Number of months a subject was a responder during the three-month treatment period: IBS symptoms, One month [3]: 19 (14) n (%) | Number of months a subject was a responder during the three-month treatment period: IBS symptoms, Three months [3]: 50 (38) n (%) | Number of months a subject was a responder during the three-month treatment period: IBS symptoms, Two months [3]: 26 (20) n (%) | Number of months a subject was a responder during the three-month treatment period: IBS symptoms, Zero months [3]: 38 (29) n (%) | Number of subjects who were responders during the three-month treatment period: Adequate relief of IBS symptoms [4]: 69 (52) n (%) | Number of subjects who were responders during the three-month treatment period: Adequate relief of abdominal pain/discomfort [4]: 79 (59) n (%) | Number of subjects who were responders during the three-month treatment period: Adequate relief of abnormal bowel habits [4]: 69 (52) n (%) | Number of months a subject was a responder during the three-month treatment period: Abdominal paint/discomfort, One month [5]: 13 (13) n (%) | Number of months a subject was a responder during the three-month treatment period: Abdominal paint/discomfort, Three months [5]: 39 (38) n (%) | Number of months a subject was a responder during the three-month treatment period: Abdominal paint/discomfort, Two months [5]: 18 (18) n (%) | Number of months a subject was a responder during the three-month treatment period: Abdominal paint/discomfort, Zero months [5]: 32 (31) n (%) | Number of months a subject was a responder during the three-month treatment period: Abnormal bowel habits, One month [5]: 17 (17) n (%) | Number of months a subject was a responder during the three-month treatment period: Abnormal bowel habits, Three months [5]: 37 (36) n (%) | Number of months a subject was a responder during the three-month treatment period: Abnormal bowel habits, Two months [5]: 12 (12) n (%) | Number of months a subject was a responder during the three-month treatment period: Abnormal bowel habits, Zero months [5]: 36 (35) n (%) | Number of months a subject was a responder during the three-month treatment period: IBS symptoms, One month [5]: 17 (17) n (%) | Number of months a subject was a responder during the three-month treatment period: IBS symptoms, Three months [5]: 38 (37) n (%) | Number of months a subject was a responder during the three-month treatment period: IBS symptoms, Two months [5]: 12 (12) n (%) | Number of months a subject was a responder during the three-month treatment period: IBS symptoms, Zero months [5]: 35 (34) n (%) | Number of subjects who were responders during the three-month treatment period: Adequate relief of IBS symptoms (Duration of IBS: >120 months): 48 (47) n (%) | Number of subjects who were responders during the three-month treatment period: Adequate relief of abdominal pain/discomfort (Duration of IBS: >120 months): 55 (54) n (%) | Number of subjects who were responders during the three-month treatment period: Adequate relief of abnormal bowel habits (Duration of IBS: >120 months): 46 (45) n (%) | Number of months a subject was a responder during the three-month treatment period: Abdominal pain/discomfort, One month [6]: 7 (10) n (%) | Number of months a subject was a responder during the three-month treatment period: Abdominal pain/discomfort, Three months [6]: 27 (39) n (%) | Number of months a subject was a responder during the three-month treatment period: Abdominal pain/discomfort, Two months [6]: 16 (23) n (%) | Number of months a subject was a responder during the three-month treatment period: Abdominal pain/discomfort, Zero months [6]: 20 (29) n (%) | Number of months a subject was a responder during the three-month treatment period: Abnormal bowel habits, One month [6]: 8 (11) n (%) | Number of months a subject was a responder during the three-month treatment period: Abnormal bowel habits, Three months [6]: 30 (43) n (%) | Number of months a subject was a responder during the three-month treatment period: Abnormal bowel habits, Two months [6]: 15 (21) n (%) | Number of months a subject was a responder during the three-month treatment period: Abnormal bowel habits, Zero months [6]: 17 (24) n (%) | Number of months a subject was a responder during the three-month treatment period: IBS symptoms, One month [6]: 11 (16) n (%) | Number of months a subject was a responder during the three-month treatment period: IBS symptoms, Three months [6]: 28 (40) n (%) | Number of months a subject was a responder during the three-month treatment period: IBS symptoms, Two months [6]: 16 (23) n (%) | Number of months a subject was a responder during the three-month treatment period: IBS symptoms, Zero months [6]: 15 (21) n (%) | Number of subjects who were responders during the three-month treatment period: Adequate relief of IBS symptoms (Duration of IBS: ≦24 months): 45 (64) n (%) | Number of subjects who were responders during the three-month treatment period: Adequate relief of abdominal pain/discomfort (Duration of IBS: ≦24 months): 43 (61) n (%) | Number of subjects who were responders during the three-month treatment period: Adequate relief of abnormal bowel habits (Duration of IBS: ≦24 months): 45 (64) n (%) | Number of months a subject was a responder: One month (Abdominal pain/discomfort) [7]: 30 (11) n (%) | Number of months a subject was a responder: One month (Abnormal bowel habits) [7]: 34 (13) n (%) | Number of months a subject was a responder: One month (IBS symptoms) [7]: 35 (13) n (%) | Number of months a subject was a responder: Three months (Abdominal pain/discomfort) [7]: 101 (39) n (%)
